What all share (assay): Ras GTP binding domain inhibition assay (Cy3-GTP/Cy5-GTP competition)
Test [1] addresses T1, KRas G12D mutant (Homo sapiens, UniProt P01116, G12D).
T1 construct: fused on or other part: His tag, used for capture on nickel-coated plates
The conditions noted are these: at 20 μM. A digest of the protocol:
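His-tagged Ras immobilized on nickel-coated wells in Tris buffer (pH 7.4 or 7.0) with 1 mM MgCl2, 1 mM DTT, 1% DMSO. Compound (20 μM, or serial dilution for IC50) incubated 3 hours at room temperature, ± Sos (residues 556-1049) in final hour. Bound 100 nM Cy3-/Cy5-GTP read after 45 minutes and washing.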

Test [2] addresses Rho-A (Homo sapiens, UniProt P61586). A digest of the protocol: (§1)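 First, His-tagged protein is coated on nickel wells overnight at 4 °C. Next, compound (20 μM single point or serial dilution) is added for 3 h at room temperature, with or without Sos exchange factor in the last hour. Finally, 100 nM labelled GTP binds for 45 min and retained signal is measured.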
In test [3] the target is Rac-1 (Homo sapiens, UniProt P63000). A digest of the protocol: as §1
The mark [4] stands for this setting: with SOS, read-out: KRas G12D mutant + SOS: % inh.
[5] abbreviates: without SOS, read-out: KRas G12D mutant: % inh.
Where [6] appears, read: with SOS, read-out: Rho-A + SOS: % inh.
Setting [7] is: without SOS, read-out: Rho-A: % inh.
[8] abbreviates: with SOS, read-out: Rac-1 + SOS: % inh.
[9] abbreviates: without SOS, read-out: Rac-1: % inh.

Like-named read-outs stand apart in the source and are kept apart here.

Take `COc1cccc(-c2sc3nc(-c4nccn4C)nc(N4CCC(OC)C4)c3c2-c2ccccc2)c1F` (stereo not drawn) [drawing 1025]: the “KRas G12D mutant + SOS: % inh.” value in test [1] (with SOS) is given as “C (51-75% inhibition)”. The “KRas G12D mutant: % inh.” value in test [1] (without SOS) is recorded as “A (1-25% inhibition)”. Further, the “Rho-A + SOS: % inh.” value in test [2] (at 20 μM, with SOS) is given as “B (26-50% inhibition)”. Besides, in test [2] (at 20 μM, without SOS), the “Rho-A: % inh.” value is “B (26-50% inhibition)”. In addition, the “Rac-1 + SOS: % inh.” value in test [3] (at 20 μM, with SOS) is given as “B (26-50% inhibition)”. The “Rac-1: % inh.” value in test [3] (at 20 μM, without SOS) is “B (26-50% inhibition)”.
Take `COc1cccc(-c2sc3nc(-c4nccn4C)nc(N[C@H]4C[C@@H](OC)C4)c3c2-c2ccccc2)c1F` [drawing 1026]: the inhibition at 20 µM in test [1] (setting [4]) was 51 to 75%; in test [1] (setting [5]) it was 26 to 50%; in test [2] (setting [6]), 51 to 75%; in test [2] (setting [7]) it was 51 to 75%; in test [3] (setting [8]), 51 to 75%; in test [3] (setting [9]), 51 to 75%.
`CO[C@H]1C[C@@H](Nc2nc(-c3nccn3C)nc3sc(-c4cnn(C)c4)c(-c4ccccc4)c23)C1` [drawing 1027]: the inhibition at 20 µM in test [1] (setting [4]) lay within 76 to 100%; in test [1] (setting [5]) it was 51 to 75%; in test [2] (setting [6]), 76 to 100%; in test [2] (setting [7]), 76 to 100%; in test [3] (setting [8]), 76 to 100%; in test [3] (setting [9]), 76 to 100%.
Regarding `COc1cccc(-c2sc3nc(-c4nccn4C)nc(NC4CCC(OC)C4)c3c2C)c1F` (stereo not drawn) [drawing 1028], the inhibition at 20 µM in test [1] (setting [4]) lay in the range of 51 to 75%; in test [1] (setting [5]) it was 76 to 100%; in test [2] (setting [6]), 76 to 100%; in test [2] (setting [7]), 76 to 100%; in test [3] (setting [8]), 51 to 75%; in test [3] (setting [9]) it was 51 to 75%.
As to `COC1CCC(Nc2nc(-c3nccn3C)nc3sc(-c4cccc5[nH]ncc45)c(C)c23)C1` (stereo not drawn) [drawing 1030], the inhibition at 20 µM was 51 to 75% in test [1] (setting [4]); 26 to 50% in test [1] (setting [5]); 26 to 50% in test [2] (setting [6]); 51 to 75% in test [2] (setting [7]); 51 to 75% in test [3] (setting [8]); 51 to 75% in test [3] (setting [9]).
Regarding `COCCn1ccnc1-c1nc(O)c2scc(-c3ccc(OCC(C)C)nc3)c2n1` [drawing 1033], the inhibition at 20 µM in test [1] (setting [4]) lay within 51 to 75%; in test [1] (setting [5]), 51 to 75%; in test [2] (setting [6]) it was 76 to 100%; in test [2] (setting [7]) it was 76 to 100%; in test [3] (setting [8]), 76 to 100%; in test [3] (setting [9]), 76 to 100%.
For the compound `CC(C)COc1ccc(-c2csc3c(O)nc(-c4nccn4Cc4ccccn4)nc23)cn1` [drawing 1034], the inhibition at 20 µM lay within 51 to 75% in test [1] (setting [4]); 76 to 100% in test [1] (setting [5]); 76 to 100% in test [2] (setting [6]); 76 to 100% in test [2] (setting [7]); 76 to 100% in test [3] (setting [8]); 76 to 100% in test [3] (setting [9]).
As for `COc1cccc(Cn2ccnc2-c2nc(O)c3scc(-c4ccc(OCC(C)C)nc4)c3n2)c1` [drawing 1035], the inhibition at 20 µM in test [1] (setting [4]) lay in the range of 51 to 75%; in test [1] (setting [5]), 51 to 75%; in test [2] (setting [6]) it was 51 to 75%; in test [2] (setting [7]), 76 to 100%; in test [3] (setting [8]), 76 to 100%; in test [3] (setting [9]), 76 to 100%.
Take `CO[C@H]1CC[C@@H](Nc2nc(-c3nccn3C)nc(C(=O)N3CCc4c(O)cccc4C3)c2C)C1` [drawing 1036]: the inhibition at 20 µM was 26 to 50% in test [1] (setting [4]); 26 to 50% in test [1] (setting [5]); 76 to 100% in test [2] (setting [6]); 51 to 75% in test [2] (setting [7]); 51 to 75% in test [3] (setting [8]); 51 to 75% in test [3] (setting [9]).
Turning to `Cn1ccc(-c2sc3nc(-c4nccn4C)nc(O)c3c2-c2ccccc2)n1` [drawing 1039], the inhibition at 20 µM in test [1] (setting [4]), in test [1] (setting [5]), in test [2] (setting [6]), in test [2] (setting [7]), in test [3] (setting [8]) and in test [3] (setting [9]) was 26 to 50% in each case.
Turning to `CO[C@H]1C[C@@H](Nc2nc(-c3ncc[nH]3)nc3sc(-c4ccn(C)n4)c(-c4ccccc4)c23)C1` [drawing 1045], the inhibition at 20 µM in test [1] (setting [4]), in test [1] (setting [5]), in test [2] (setting [6]), in test [2] (setting [7]), in test [3] (setting [8]) and in test [3] (setting [9]) was 26 to 50% throughout.
Consider `CO[C@H]1CC[C@@H](Nc2nc(-c3ncc[nH]3)nc3sc(-c4ccn(C)n4)c(-c4ccccc4)c23)C1` [drawing 1046], for which the inhibition at 20 µM in test [1] (setting [4]) lay within 51 to 75%; in test [1] (setting [5]), 26 to 50%; in test [2] (setting [6]), 26 to 50%; in test [2] (setting [7]) it was 51 to 75%; in test [3] (setting [8]) it was 51 to 75%; in test [3] (setting [9]), 51 to 75%.
With `CO[C@H]1CC[C@@H](Nc2nc(-c3nccn3C)nc3sc(-c4ccn(C(C)C)n4)c(-c4ccccc4)c23)C1` [drawing 1047], the inhibition at 20 µM lay within 51 to 75% in test [1] (setting [4]); 51 to 75% in test [1] (setting [5]); 76 to 100% in test [2] (setting [6]); 76 to 100% in test [2] (setting [7]); 51 to 75% in test [3] (setting [8]); 51 to 75% in test [3] (setting [9]).
On to `COc1nc(-c2ccccn2)nc2c(-c3ccccn3)csc12` [drawing 1048], for which the inhibition at 20 µM in test [1] (setting [4]) fell in the range of 1 to 25%; in test [1] (setting [5]), 26 to 50%; in test [2] (setting [6]) it was 26 to 50%; in test [2] (setting [7]), 26 to 50%; in test [3] (setting [8]) it was 26 to 50%; in test [3] (setting [9]) it was 26 to 50%.
With `CO[C@H]1C[C@@H](Nc2nc(-c3nccn3C)nc3sc(-c4ccn(C)n4)c(C)c23)C1` [drawing 1049], the inhibition at 20 µM in test [1] (setting [4]) fell in the range of 51 to 75%; in test [1] (setting [5]), 51 to 75%; in test [2] (setting [6]), 76 to 100%; in test [2] (setting [7]), 76 to 100%; in test [3] (setting [8]) it was 51 to 75%; in test [3] (setting [9]), 51 to 75%.
In the case of `CO[C@H]1CC[C@@H](Nc2nc(-c3nccn3C)nc3sc(-c4ccn(C)n4)c(C)c23)C1` [drawing 1050], the inhibition at 20 µM in test [1] (setting [4]) fell in the range of 51 to 75%; in test [1] (setting [5]) it was 26 to 50%; in test [2] (setting [6]) it was 76 to 100%; in test [2] (setting [7]) it was 76 to 100%; in test [3] (setting [8]), 76 to 100%; in test [3] (setting [9]), 76 to 100%.
Turning to `Cc1c(-c2ccn(C)n2)sc2nc(-c3nccn3C)nc(NCCCS(C)(=O)=O)c12` [drawing 1051], the inhibition at 20 µM was in the range of 76 to 100% in test [1] (setting [4]); 76 to 100% in test [1] (setting [5]); 51 to 75% in test [2] (setting [6]); 51 to 75% in test [2] (setting [7]); 51 to 75% in test [3] (setting [8]); 76 to 100% in test [3] (setting [9]).
As to `Cc1c(-c2ccn(C)n2)sc2nc(-c3nccn3C)nc(NCCCC(=O)N(C)C)c12` [drawing 1052], the inhibition at 20 µM lay within 76 to 100% in test [1] (setting [4]); 51 to 75% in test [1] (setting [5]); 76 to 100% in test [2] (setting [6]); 76 to 100% in test [2] (setting [7]); 76 to 100% in test [3] (setting [8]); 76 to 100% in test [3] (setting [9]).
Regarding `Cc1c(-c2ccn(C)n2)sc2nc(-c3nccn3C)nc(NCCOC(=O)N(C)C)c12` [drawing 1053], the inhibition at 20 µM lay within 76 to 100% in test [1] (setting [4]); 76 to 100% in test [1] (setting [5]); 51 to 75% in test [2] (setting [6]); 76 to 100% in test [2] (setting [7]); 51 to 75% in test [3] (setting [8]); 76 to 100% in test [3] (setting [9]).
With `CO[C@H]1C[C@@H](Nc2nc(-c3nccn3C)nc3sc(C(=O)NC(C)C)c(-c4ccccc4)c23)C1` [drawing 1055], the inhibition at 20 µM in test [1] (setting [4]) was in the range of 51 to 75%; in test [1] (setting [5]) it was 51 to 75%; in test [2] (setting [6]), 51 to 75%; in test [2] (setting [7]), 51 to 75%; in test [3] (setting [8]) it was 76 to 100%; in test [3] (setting [9]) it was 76 to 100%.
On to `COCCNC(=O)c1sc2nc(-c3nccn3C)nc(N[C@H]3C[C@@H](OC)C3)c2c1-c1ccccc1` [drawing 1056], for which the inhibition at 20 µM lay within 51 to 75% in test [1] (setting [4]); 51 to 75% in test [1] (setting [5]); 51 to 75% in test [2] (setting [6]); 51 to 75% in test [2] (setting [7]); 76 to 100% in test [3] (setting [8]); 51 to 75% in test [3] (setting [9]).
`CO[C@H]1C[C@@H](Nc2nc(-c3nccn3C)nc3sc(C(=O)N4CCOCC4)c(-c4ccccc4)c23)C1` [drawing 1057]: the inhibition at 20 µM in test [1] (setting [4]) fell in the range of 51 to 75%; in test [1] (setting [5]), 51 to 75%; in test [2] (setting [6]) it was 51 to 75%; in test [2] (setting [7]), 51 to 75%; in test [3] (setting [8]) it was 76 to 100%; in test [3] (setting [9]), 51 to 75%.
In the case of `COC1CCN(C(=O)c2sc3nc(-c4nccn4C)nc(N[C@H]4C[C@@H](OC)C4)c3c2-c2ccccc2)C1` (stereo partly drawn) [drawing 1058], the inhibition at 20 µM in test [1] (setting [4]) fell in the range of 51 to 75%; in test [1] (setting [5]) it was 51 to 75%; in test [2] (setting [6]), 76 to 100%; in test [2] (setting [7]) it was 26 to 50%; in test [3] (setting [8]) it was 51 to 75%; in test [3] (setting [9]) it was 76 to 100%.
Regarding `CO[C@H]1CC[C@@H](Nc2nc(-c3nccn3C)nc3sc(C(=O)NC(C)C)c(-c4ccccc4)c23)C1` [drawing 1059], the inhibition at 20 µM in test [1] (setting [4]), in test [1] (setting [5]), in test [2] (setting [6]), in test [2] (setting [7]), in test [3] (setting [8]) and in test [3] (setting [9]) was 76 to 100% each time.

These data come from patent US20250296938A1, “Compounds that Interact with the Ras Superfamily for the Treatment of Cancers, Inflammatory Diseases, Rasopathies, and Fibrotic Disease” (SHY Therapeutics, LLC, priority 2018, published 2025).
